Laboratory results taken from patent US20100196995A1, “Systems and methods for maintaining the dominance and increasing the biomass production of nannochloropsis in an algae cultivation system” (priority 2009, published 2010).
Marks after values point to notes of the source that are not given here.

Key:
Format in all cases: cell-based
[1] = tested on: Nannochloropsis; experiment: Example Two: ozone skid tests on outdoor ponds D4, MP1, 25A, Nannochloropsis productivity and resistance
Protocol: (§1) In the following examples, Nannochloropsis was grown in outdoor, open, three-square meter ponds in Vero Beach, Florida. The climate in Vero Beach is semitropical, with mild, cool winters and hot, humid summers. It is a challenging climate for keeping outdoor algal cultures stable and productive. The overnight warmth encourages predation by protozoa, rotifers, and crustaceans. The humidity allows the airborne transport of competing algae, and thus increases the rate of invasion.
(§2) An ozone skid was assembled on-site utilizing a dry air feed ozone generator capable of producing 10 g/h of ozone.
(§3) A small pump was connected to the system with the ozone added to the liquid recycle line via a Mazzei gas to liquid injector capable of flow rates between 13.2-28.35 1pm@pressures ranging from 15-25 psi. Tests were run on ponds D4 (3 m^2 surface area), MP1 (3 m^2 surface area), and 25A (25 m^2 surface area) with salinities ranging from 20-24 ppt using flow rates of 13.2 and 15.6 1pm@20 psi. The ozonator is equipped with a variable transformer that offers the ability to vary ozone dosage between 0-100%. Tests were run at ozone concentrations of 25%, 50%, 75%, and 100% at flow rates of 13.2 and 15.6 1pm.
Productivity results of the three pond systems run at the high concentrations are listed below:
(§4) Nannochloropsis was unaffected by ozone at these dosages.
(§5) Using the skid mounted system as an in-situ transfer treatment to inoculate new ponds was also tested with very favorable results. Both D4 (3 m^2) and MP1 (3 m^2) were filled with ozone treated inoculums from one of the larger ponds that had large amounts of clumps and decreasing productivity. The effect of this was that most of the clumps (>80%) were broken up and the grazers present inside of the clumps were destroyed as well as free grazers and diatoms in the solution with no effect on Nannochloropsis.

[2] = tested on: grazers; experiment: Example Two: ozone skid tests on outdoor ponds, ozone disinfection of grazers
Protocol: as §1, §2, §3, §4, §5

[3] = tested on: Nannochloropsis; experiment: Example One: pond culture passed through ozone generator, effect on Nannochloropsis
Protocol: as §1
(§6) Ozone was added to an algal cultivation system using a commercial ozone generator with accompanying liquid pump, venturi, and air dryer. The machine used was a small model capable of generating 10 grams of ozone per hour. The flow rate of liquid through the generator was about 16 liters per minute. At fifty percent (50%) of maximal ozone generation, the concentration of ozone in the liquid after one pass through the ozone generator was 4.6 mg/L, and at 100% was 9.6 mg/L.
(§7) Two three-square meter ponds were started by taking 500L of culture from a larger pond and passing it through the ozone generator once. One pond was started with the ozonator setting at 50%, the other pond was started with the ozonator setting at 100%. The original algal culture had numerous clumps of Nannochloropsis, cell debris, various diatoms, and some ciliated protozoa grazers.
The two algal cultures were allowed to grow for two days without dilution, but with nutrient addition to see whether the ozone treatment changed the production of biomass and the subsequent stability of the cultures. After two days of batch growth, each pond was diluted one third per day and recirculated each day through the ozone generator for 30 minutes. During this time period about 500L, or one volume equivalent was treated. As before, one pond was passed through the machine at 50% setting and one at 100% setting.

[4] = tested on: ciliated protozoa grazers; experiment: Example One: pond culture passed through ozone generator, effect on grazers; settings: ozonator setting 50% (4.6 mg/L) or 100% (9.6 mg/L)
Protocol: as §1, §6, §7

[5] = tested on: Nannochloropsis; experiment: Exposure of Nannochloropsis cultures to extremely high (shock) levels of ozone; settings: above 30 milligrams/liter ozone, exposure not prolonged
From the text: At alternative step 135, if the level or amount of predators and/or invaders exceeds an actual or desired level, the ozone concentration of the algae cultivation system may be adjusted by applying an effective “shock” amount of ozone. The ozone concentration of the algae cultivation system may be adjusted via the inlet stream that feeds into the algae cultivation system. Applying an effective shock amount of ozone to the inlet stream may result in an initial ozone concentration of the inlet stream above 10 milligrams/liter, which feeds into the algae cultivation system. An unexpected result observed via the experiments described herein is that Nannochloropsis cultures exposed to extremely high levels of ozone (above 30 milligrams/liter) recover (i.e., the Nannochloropsis cultures were not killed), provided the exposure to the ozone is not prolonged. […] Note: steps 130 and 135 may be performed in alternating or rotating fashion, provided the ozone concentration is properly observed.

[6] = tested on: diatoms; experiment: Example One: pond culture passed through ozone generator, effect on diatoms; settings: ozonator setting 50% (4.6 mg/L) or 100% (9.6 mg/L)
Protocol: as §1, §6, §7

[7] = tested on: diatoms; experiment: Example Two: ozone skid tests on outdoor ponds, ozone disinfection of diatoms
Protocol: as §1, §2, §3, §4, §5

[8] = 25 m^2 pond 25A, side stream treated
[9] = in-situ transfer treatment of inoculums for D4 and MP1
[10] = 3 m^2 ponds D4 and MP1, concentrations of ozone tested

In the case of O=[O+][O-] [Ozone, ozone], the “Effect of ozone on Nannochloropsis” value ([1]; 3 m^2 ponds D4 and MP1, at these dosages) is reported as “unaffected”, the “Clumping after exposure to ozone” value [1, 8] is reported as “clumping did not become as dramatic of a problem” and the Productivity ([1]; Pond 25A (25 m^2), Jul. 09, 2008, total 5950 mg O3, 5615 liters recycled) is reported as 16.1 g/m^2/day. For the same compound, the Productivity ([1]; Pond 25A (25 m^2), Jul. 10, 2008, total 5950 mg O3, 5615 liters recycled) was 4.6 g/m^2/day, the Productivity ([1]; Pond 25A (25 m^2), Jul. 11, 2008, total 5950 mg O3, 5615 liters recycled, pond temperature reached 39° C.) was −8.3* g/m^2/day and the Productivity ([1]; Pond 25A (25 m^2), Jul. 12, 2008, total 5950 mg O3, 5615 liters recycled) was 12.2 g/m^2/day. It also gave a Productivity ([1]; Pond 25A (25 m^2), Jul. 13, 2008, total 5950 mg O3, 5615 liters recycled) of 10.7 g/m^2/day, a Productivity ([1]; Pond 25A (25 m^2), Jul. 14, 2008, total 5950 mg O3, 5615 liters recycled) of 8.0 g/m^2/day and a Productivity ([1]; Pond D4 (3 m^2), Jul. 09, 2008, total 500 mg O3, 470 liters recycled) of 15.4 g/m^2/day. It also gave a Productivity ([1]; Pond D4 (3 m^2), Jul. 10, 2008, total 500 mg O3, 470 liters recycled) of 16.1 g/m^2/day, a Productivity ([1]; Pond D4 (3 m^2), Jul. 11, 2008, total 500 mg O3, 470 liters recycled) of 16.0 g/m^2/day and a Productivity ([1]; Pond D4 (3 m^2), Jul. 12, 2008, total 500 mg O3, 470 liters recycled) of 8.4 g/m^2/day. It also gave a Productivity ([1]; Pond D4 (3 m^2), Jul. 13, 2008, total 500 mg O3, 470 liters recycled) of 12.2 g/m^2/day, a Productivity ([1]; Pond D4 (3 m^2), Jul. 14, 2008, total 500 mg O3, 470 liters recycled) of 14.9 g/m^2/day and a Productivity ([1]; Pond MP1 (3 m^2), Jul. 09, 2008, total 500 mg O3, 470 liters recycled) of 13.3 g/m^2/day. For the same compound, the Productivity ([1]; Pond MP1 (3 m^2), Jul. 10, 2008, total 500 mg O3, 470 liters recycled) was 17.2 g/m^2/day, the Productivity ([1]; Pond MP1 (3 m^2), Jul. 11, 2008, total 500 mg O3, 470 liters recycled) was 16.9 g/m^2/day and the Productivity ([1]; Pond MP1 (3 m^2), Jul. 12, 2008, total 500 mg O3, 470 liters recycled) was 9.0 g/m^2/day. For the same compound, the Productivity ([1]; Pond MP1 (3 m^2), Jul. 13, 2008, total 500 mg O3, 470 liters recycled) was 16.0 g/m^2/day, the Productivity ([1]; Pond MP1 (3 m^2), Jul. 14, 2008, total 500 mg O3, 470 liters recycled) was 13.4 g/m^2/day and the “Effect on Nannochloropsis” value [1, 9] was “no effect”. The Clumps broken up ([1]; in-situ transfer treatment: D4 and MP1 filled with ozone treated inoculums from a larger pond with large amounts of clumps) was > 80%, the “Clump formation after daily repeated exposure to ozone” value ([1]; small 3 m^2 ponds D4 and MP1) was “clumps did form in large numbers” and the “Effect of ozone exposure on grazers present” value [2, 10] was “adversely affected after exposure to ozone resulting in their elimination”. The “Effect of ozone exposure on grazers” value [2, 8] was “similarly affected”, the “Grazers inside of the clumps and free grazers in the solution” value [2, 9] was “destroyed” and the “Survival of Nannochloropsis after one pass through the ozone generator” value ([3]; 500L culture, one pass, ozonator setting 50% (4.6 mg/L) or 100% (9.6 mg/L)) was “only single cells of Nannochloropsis survived”. The “Ill effects from the ozone on Nannochloropsis ponds” value ([3]; both ponds (50% and 100% setting), daily 30 minute recirculation for three days) was “no ill effects”, the “Production of biomass above that of a control pond” value ([3]; both ponds (50% and 100% setting), recirculated 30 minutes per day through ozone generator for three days, diluted one third per day) was 20% and the “Clumps of Nannochloropsis after one pass through the ozone generator” value ([3]; one pass, ozonator setting 50% (4.6 mg/L) or 100% (9.6 mg/L)) was “completely broken up”. The “Grazers after one pass through the ozone generator” value [4] was “killed”, the “Outcome of Nannochloropsis cultures after extremely high levels of ozone” value [5] was “recover” and the “Diatoms after one pass through the ozone generator” value [6] was “killed”. The “Effect of ozone exposure on diatoms present” value [7, 10] was “adversely affected after exposure to ozone resulting in their elimination”, the “Effect of ozone exposure on diatoms” value [7, 8] was “similarly affected” and the “Free diatoms in the solution” value [7, 9] was “destroyed”.
